The numbers were not newly measured in patent publication US20170326105A1, “MELATONIN-BASED NASAL COMPOSITIONS AND USES THEREOF” (The Lester Smith Medical Research Institute, LLC, priority 2016, published 2017), which cites them from elsewhere.

As to `COc1ccc2[nH]cc(CCNC(C)=O)c2c1` [melatonin, N-acetyl-5-methoxy tryptamine], the “time for plasma levels to return to baseline” value (after discontinuation of chronic dosing of less than 10 mg/day) is not above 24 h. The “estimated peak blood levels above physiological levels” value (doses of melatonin 5 mg) is recorded as 25 times. In addition, the “time after administration for blood plasma concentration to reach its peak” value (oral administration) is given as “over an hour”.
